Test results as given in ChEMBL document CHEMBL1130558, “Synthesis and preliminary structure-activity relationships of 1-[(3-fluoro-4-pyridinyl)amino]-3-methyl-1H-indol-5-yl methyl carbamate (P10358), a novel acetylcholinesterase inhibitor” (Bioorg Med Chem Lett, 1997).
Calls of active or inactive are those of the source.

What was measured:
[1] = system: Mus musculus; experiment: The percent of animals in the scopolamine-drug group with latencies greater than the cutoff time at subcutaneous dose of 0.1 mg/kg; type: functional
[2] = system: Mus musculus; experiment: The percent of animals in the scopolamine-drug group with latencies greater than the cutoff time at subcutaneous dose of 0.003 mg/kg; type: functional
[3] = system: Mus musculus; experiment: Compound evaluated in vivo for reversing the Scopolamine dementia dark avoidance (SDDA) in mice expressed number of active dosages versus the total number of dosages evaluated; 5/7 and active; type: functional, organism-based
[4] = system: Mus musculus; experiment: The percent of animals in the scopolamine-drug group with latencies greater than the cutoff time at subcutaneous dose of 0.001 mg/kg; type: functional
[5] = target: T1, Acetylcholinesterase (Rattus norvegicus, UniProt P37136); experiment: Compound was evaluated in vitro in rats for the inhibition of brain (striatal) acetylcholinesterase (AChEI) using acetylthiocholine as substrate; 0.0026-0.031
T1 sequence (P37136 whole entry): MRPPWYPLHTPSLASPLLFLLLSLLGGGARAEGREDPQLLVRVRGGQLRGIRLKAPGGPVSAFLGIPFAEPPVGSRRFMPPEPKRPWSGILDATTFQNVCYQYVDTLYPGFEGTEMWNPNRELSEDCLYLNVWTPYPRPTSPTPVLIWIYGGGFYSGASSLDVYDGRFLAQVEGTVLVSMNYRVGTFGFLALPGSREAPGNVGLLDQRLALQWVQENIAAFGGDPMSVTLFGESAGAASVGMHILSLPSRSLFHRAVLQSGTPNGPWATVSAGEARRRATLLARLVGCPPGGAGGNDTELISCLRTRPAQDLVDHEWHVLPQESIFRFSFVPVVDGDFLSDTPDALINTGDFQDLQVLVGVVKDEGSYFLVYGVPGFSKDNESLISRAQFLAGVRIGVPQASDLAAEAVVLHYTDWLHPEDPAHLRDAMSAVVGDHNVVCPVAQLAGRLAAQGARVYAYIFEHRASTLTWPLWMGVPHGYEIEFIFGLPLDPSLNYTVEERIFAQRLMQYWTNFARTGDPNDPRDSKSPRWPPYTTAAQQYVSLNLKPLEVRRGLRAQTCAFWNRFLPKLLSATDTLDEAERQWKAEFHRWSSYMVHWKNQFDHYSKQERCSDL

[6] = system: Mus musculus; experiment: The percent of animals in the scopolamine-drug group with latencies greater than the cutoff time at subcutaneous dose of 0.01 mg/kg; type: functional
[7] = system: Mus musculus; experiment: The percent of animals in the scopolamine-drug group with latencies greater than the cutoff time at subcutaneous dose of 1.0 mg/kg; type: functional
[8] = target: T2, Cholinesterase (Homo sapiens, UniProt P06276); experiment: In vitro inhibition of human serum Butyrylcholinesterase using butyrylthiocholine as substrate; 0.00029-0.001
T2 sequence (P06276 whole entry): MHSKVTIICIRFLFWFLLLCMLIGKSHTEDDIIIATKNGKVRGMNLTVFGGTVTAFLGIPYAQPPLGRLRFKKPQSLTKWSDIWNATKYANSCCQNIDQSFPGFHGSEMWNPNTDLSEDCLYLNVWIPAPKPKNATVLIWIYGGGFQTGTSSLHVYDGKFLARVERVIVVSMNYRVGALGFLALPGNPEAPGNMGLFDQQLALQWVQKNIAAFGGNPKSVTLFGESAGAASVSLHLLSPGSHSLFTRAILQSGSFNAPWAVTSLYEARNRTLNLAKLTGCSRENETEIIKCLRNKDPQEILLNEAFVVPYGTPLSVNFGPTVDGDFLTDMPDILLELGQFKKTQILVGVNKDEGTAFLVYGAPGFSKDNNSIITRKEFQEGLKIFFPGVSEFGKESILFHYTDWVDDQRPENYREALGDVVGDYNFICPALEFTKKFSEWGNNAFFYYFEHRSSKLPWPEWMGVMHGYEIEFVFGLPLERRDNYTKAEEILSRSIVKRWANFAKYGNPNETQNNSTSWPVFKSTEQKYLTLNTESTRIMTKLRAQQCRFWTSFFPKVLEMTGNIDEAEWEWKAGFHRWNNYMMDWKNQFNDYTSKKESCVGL

[9] = target: T3, Acetylcholinesterase (Rattus norvegicus) (UniProt P37136); experiment: Compound was evaluated ex vivo for the inhibition of acetylcholinesterase (AChEI) one hour after oral administration
T3 sequence (whole entry): T1 sequence (P37136 whole entry)

[10] = system: Mus musculus; experiment: The percent of animals in the scopolamine-drug group with latencies greater than the cutoff time at subcutaneous dose of 0.3 mg/kg; type: functional
[11] = target: T3, Acetylcholinesterase (Rattus norvegicus); experiment: Tested for percent ex vivo inhibition of rat striatal acetylcholinesterase at peroral dose of 10 mg/kg at 4 hr; type: organism-based; parameters: dose 10 mg/kg
[12] = system: Mus musculus; experiment: Compound evaluated in vivo for reversing the Scopolamine dementia dark avoidance (SDDA) in mice expressed number of active dosages versus the total number of dosages evaluated; 3/3 and active; type: functional, organism-based
[13] = target: T3, Acetylcholinesterase (Rattus norvegicus); experiment: Tested for percent ex vivo inhibition of rat striatal acetylcholinesterase at peroral dose of 20 mg/kg at 4 hr; type: organism-based; parameters: dose 20 mg/kg
[14] = target: T1, Acetylcholinesterase; experiment: Compound was evaluated in vitro in rats for the inhibition of brain (striatal) acetylcholinesterase (AChEI) using acetylthiocholine as substrate; 0.084-0.19
[15] = target: T3, Acetylcholinesterase (Rattus norvegicus); experiment: Tested for percent ex vivo inhibition of rat striatal acetylcholinesterase at peroral dose of 10 mg/kg at 6 hr; type: organism-based; parameters: dose 10 mg/kg
[16] = target: T3, Acetylcholinesterase (Rattus norvegicus); experiment: Dose required to exhibit robust maximal effect for acetylcholinesterase (AChE) inhibition following intraperitoneal administration
[17] = target: T3, Acetylcholinesterase (Rattus norvegicus); experiment: Tested for percent ex vivo inhibition of rat striatal acetylcholinesterase at peroral dose of 20 mg/kg at 24 hr; type: organism-based; parameters: dose 20 mg/kg
[18] = target: T3, Acetylcholinesterase (Rattus norvegicus); experiment: Tested for percent ex vivo inhibition of rat striatal acetylcholinesterase at peroral dose of 10 mg/kg at 24 hr; type: organism-based; parameters: dose 10 mg/kg
[19] = target: T3, Acetylcholinesterase (Rattus norvegicus); experiment: Tested for percent ex vivo inhibition of rat striatal acetylcholinesterase at peroral dose of 10 mg/kg at 1 hr; type: organism-based; parameters: dose 10 mg/kg
[20] = target: T3, Acetylcholinesterase (Rattus norvegicus); experiment: Tested for percent ex vivo inhibition of rat striatal acetylcholinesterase at peroral dose of 20 mg/kg at 1 hr; type: organism-based; parameters: dose 20 mg/kg
[21] = target: T2, Cholinesterase; experiment: In vitro inhibition of human serum Butyrylcholinesterase using butyrylthiocholine as substrate; 0.15-0.22
[22] = target: T3, Acetylcholinesterase (Rattus norvegicus); experiment: Tested for percent ex vivo inhibition of rat striatal acetylcholinesterase at peroral dose of 20 mg/kg at 6 hr; type: organism-based; parameters: dose 20 mg/kg
[23] = system: Mus musculus; experiment: The percent of animals in the scopolamine-drug group with latencies greater than the cutoff time at subcutaneous dose of 0.03 mg/kg; type: functional
[24] = system: Mus musculus; experiment: The percent of animals in the scopolamine-drug group with latencies greater than the cutoff time at subcutaneous dose of 5 mg/kg; type: functional
[25] = system: Mus musculus; experiment: The percent of animals in the scopolamine-drug group with latencies greater than the cutoff time at subcutaneous dose of 0.04 mg/kg;; type: functional
[26] = system: Mus musculus; experiment: The percent of animals in the scopolamine-drug group with latencies greater than the cutoff time at subcutaneous dose of 1.25 mg/kg; type: functional
[27] = system: Mus musculus; experiment: Compound evaluated in vivo for reversing the Scopolamine dementia dark avoidance (SDDA) in mice expressed number of active dosages versus the total number of dosages evaluated; 4/9 and active; type: functional, organism-based
[28] = system: Mus musculus; experiment: The percent of animals in the scopolamine-drug group with latencies greater than the cutoff time at subcutaneous dose of 2.5 mg/kg; type: functional
[29] = target: T2, Cholinesterase; experiment: In vitro inhibition of human serum Butyrylcholinesterase using butyrylthiocholine as substrate; 0.01-0.069
[30] = target: T1, Acetylcholinesterase; experiment: Compound was evaluated in vitro in rats for the inhibition of brain (striatal) acetylcholinesterase (AChEI) using acetylthiocholine as substrate; 0.014-0.14
[31] = target: T1, Acetylcholinesterase; experiment: Compound was evaluated in vitro in rats for the inhibition of brain (striatal) acetylcholinesterase (AChEI) using acetylthiocholine as substrate; 0.024-0.14
[32] = system: Mus musculus; experiment: The percent of animals in the scopolamine-drug group with latencies greater than the cutoff time at subcutaneous dose of 0.63 mg/kg; type: functional
[33] = system: Mus musculus; experiment: Compound was evaluated in vivo for the significant activity at all doses in reversing the Scopolamine dementia dark avoidance (SDDA) in mice; 1/6; type: functional
[34] = target: T2, Cholinesterase; experiment: In vitro inhibition of human serum Butyrylcholinesterase using butyrylthiocholine as substrate; 0.023-0.041
[35] = target: T1, Acetylcholinesterase; experiment: Compound was evaluated in vitro in rats for the inhibition of brain (striatal) acetylcholinesterase (AChEI) using acetylthiocholine as substrate; 21-88
[36] = system: Mus musculus; experiment: Compound was evaluated in vivo for the significant activity at all doses in reversing the Scopolamine dementia dark avoidance (SDDA) in mice; 2/3; type: functional
[37] = system: Mus musculus; experiment: The percent of animals in the scopolamine-drug group with latencies greater than the cutoff time at subcutaneous dose of 3.0 mg/kg; type: functional
[38] = target: T2, Cholinesterase; experiment: In vitro inhibition of human serum Butyrylcholinesterase using butyrylthiocholine as substrate; 0.69-1.2
[39] = target: T1, Acetylcholinesterase; experiment: Compound was evaluated in vitro in rats for the inhibition of brain (striatal) acetylcholinesterase (AChEI) using acetylthiocholine as substrate; 3.3-4.8
[40] = target: T4, Muscarinic acetylcholine receptor M4 (Homo sapiens) (UniProt P08173); experiment: In vitro inhibition of muscarinic receptor stimulation; NI=No inhibition
T4 sequence (whole entry): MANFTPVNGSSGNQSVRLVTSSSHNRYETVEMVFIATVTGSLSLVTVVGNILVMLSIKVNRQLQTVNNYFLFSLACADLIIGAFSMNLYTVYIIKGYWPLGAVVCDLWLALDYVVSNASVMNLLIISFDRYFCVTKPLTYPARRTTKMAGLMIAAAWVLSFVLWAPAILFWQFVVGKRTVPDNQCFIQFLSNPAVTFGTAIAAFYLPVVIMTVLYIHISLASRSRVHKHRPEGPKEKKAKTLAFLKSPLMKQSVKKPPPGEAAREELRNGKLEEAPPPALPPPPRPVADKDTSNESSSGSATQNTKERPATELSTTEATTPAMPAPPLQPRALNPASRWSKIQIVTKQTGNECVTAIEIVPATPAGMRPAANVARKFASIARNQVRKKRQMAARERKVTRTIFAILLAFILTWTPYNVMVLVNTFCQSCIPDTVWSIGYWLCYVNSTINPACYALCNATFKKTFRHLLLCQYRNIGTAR

[41] = target: T5, Acetylcholine receptor subunit delta (Torpedo californica) (UniProt P02718); experiment: In vitro inhibition of Nicotinic acetylcholine receptor stimulation; NI=No inhibition
T5 sequence (whole entry): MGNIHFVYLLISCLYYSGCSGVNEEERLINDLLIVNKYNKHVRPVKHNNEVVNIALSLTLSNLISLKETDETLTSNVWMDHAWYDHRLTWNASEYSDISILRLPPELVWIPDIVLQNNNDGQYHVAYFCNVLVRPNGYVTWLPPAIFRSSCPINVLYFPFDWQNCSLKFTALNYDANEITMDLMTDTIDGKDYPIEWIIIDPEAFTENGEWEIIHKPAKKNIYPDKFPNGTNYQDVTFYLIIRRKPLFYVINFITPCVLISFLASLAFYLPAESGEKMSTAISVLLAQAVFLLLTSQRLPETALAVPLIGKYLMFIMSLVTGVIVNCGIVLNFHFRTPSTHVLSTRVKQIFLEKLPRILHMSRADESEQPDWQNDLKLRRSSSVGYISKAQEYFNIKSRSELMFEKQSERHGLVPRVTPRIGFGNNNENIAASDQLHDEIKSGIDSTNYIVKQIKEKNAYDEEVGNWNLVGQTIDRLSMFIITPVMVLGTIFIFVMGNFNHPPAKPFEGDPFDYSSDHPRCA

CCCCCCCNC(=O)Oc1ccc2c(c1)[C@]1(C)CCN(C)[C@@H]1N2C [EPTASTIGMINE]
Response [1]: 33%
Response [2]: 53%
Activity [3]: Active
Response [4]: 40%
IC50 [5]: 0.009 µM
Response [6]: 45%
Response [7]: 20%
IC50 [8]: 0.00069 µM
ED50 [9]: 10.1 mg/kg

CNC(=O)Oc1ccc2c(c1)c(C)cn2Nc1ccncc1F
Response [1]: 21%
Response [10]: 28%
inhibition [11]: 56%
Activity [12]: Active
inhibition [13]: 84%
IC50 [14]: 0.13 µM
inhibition [15]: 3%
DOSE [16]: 0.625 mg/kg
inhibition [17]: 20%
inhibition [18]: 0%
inhibition [19]: 67%
inhibition [20]: 82%
IC50 [21]: 0.19 µM
ED50 [9]: 8.3 mg/kg
inhibition [22]: 82%
Response [23]: 40%

CCCN(c1ccncc1F)n1cc(C)c2cc(OC(=O)NCc3ccccc3)ccc21
Response [24]: 20%
Response [25]: 20%
Response [26]: 20%
Activity [27]: Active
Response [28]: 20%
IC50 [29]: 0.027 µM
inhibition [13]: 12%
IC50 [30]: 0.043 µM
inhibition [17]: 2%
inhibition [20]: 15%
inhibition [22]: 6%

CCCN(c1ccncc1F)n1cc(C)c2cc(OC(=O)NC)ccc21
IC50 [31]: 0.058 µM
Response [32]: 27%
Activity [33]: 1
inhibition [13]: 41%
inhibition [17]: 9%
inhibition [20]: 50%
IC50 [34]: 0.031 µM

CCCCCCCNC(=O)Oc1ccc2c(c1)c(C)cn2N(CCC)c1ccncc1F
IC50 [35]: 43 µM

CCCCNC(=O)Oc1ccc2c(c1)c(C)cn2N(CCC)c1ccncc1F
Activity [36]: 2
inhibition [13]: 26%
inhibition [17]: 11%
Response [7]: 33%
Response [37]: 33%
IC50 [38]: 0.92 µM
IC50 [39]: 4 µM

CCCN(c1ccncc1)n1ccc2ccccc21
Activity [40]: inactive
Activity [41]: inactive
